From US20160058754A1, “Nalmefene for Treatment of Patients with Anxiety Disorder” (H. LUNDBECK A/S, priority 2013, published 2016)

How the values were obtained:
[1] = tested on: patients with alcohol dependence; experiment: Clinical efficacy on the reduction of alcohol consumption (Studies 12014A, 12023A, 12013A); type: in vivo, human
Method: The efficacy of nalmefene in the reduction of alcohol consumption in patients with alcohol dependence (DSM-IV) has been evaluated in studies 12014A, 12023A and 12013A. The efficacy of nalmefene was measured using two co-primary endpoints: the change from baseline in the monthly number of heavy drinking days (HDDs) and the change from baseline in the average daily total alcohol consumption (TAC).
(§1) Another approach to identify patients with an anxiety disorder is by defining Anxiety Disorder at baseline as any ongoing medical history coded by the Medical Dictionary for Regulatory Activities (MedDRA) Preferred Term as ‘Acute Stress Disorder’, ‘Agoraphobia’, ‘Anxiety’, ‘Anxiety Disorder’, ‘Emotional Distress’, ‘Generalised Anxiety Disorder’, ‘Nervousness’, ‘Nosophobia’, ‘Obsessive-Compulsive Disorder’, ‘Panic Attack’, ‘Panic Disorder’, ‘Panic Disorder With Agoraphobia’, ‘Post-Traumatic Stress Disorder’, ‘Social Phobia’ and/or ‘Stress and Tension’. In examples 1 and 2 below patients classified with an anxiety disorder at baseline were selected based on said MedDRA terms.
The efficacy of nalmefene on the reduction of alcohol consumption in patients with alcohol dependence (DSM-IV) was evaluated in two efficacy studies (Study 12014A and Study 12023A) and a safety study (Study 12013A). All studies were multi-national, multi-site, randomised, double blind, two parallel group, placebo controlled studies. The efficacy was evaluated over 24 weeks of treatment. The studies included outpatients, aged ≧18 years, with a primary diagnosis of alcohol dependence. […] Patients with psychiatric co-morbidity (that is, patients who used stable doses of antipsychotics and/or certain antidepressants) were also included unless the treatment of the psychiatric comorbidity had to take priority over treatment of the drinking problem, or was likely to interfere with study treatment or impairs treatment compliance.
The studies included in total 1997 patients, 1173 of whom were treated with nalmefene 18 mg in an as-needed dosing regimen. A motivational and adherence enhancing intervention was administered to all the patients to support the patients in changing their behavior and to enhance adherence to treatment.
The efficacy of nalmefene on the reduction of alcohol consumption was measured using two co-primary endpoints: the change in the monthly number of heavy drinking days (HDDs) and the change in the average daily total alcohol consumption (TAC). A HDD was defined as a day with a consumption ≧60 g alcohol for men and ≧40 g for women.

[2] = tested on: patients with alcohol dependence; experiment: Clinical efficacy measured by POMS score (Studies 12014A, 12023A, 12013A); type: in vivo, human
Text: The term “POMS” is an abbreviation of “profile of mood states” and refers to a self-report inventory scale developed to assess the effect of e.g. new medication on mood states and mood changes. The scale measures six domains: Tension-Anxiety, Depression-Rejection, Anger-Hostility, Vigour-Activity, Fatigue-Inertia, and Confusion-Bewilderment. A total mood disturbance (TMD) score can be calculated. In general, a lower POMS score indicates a better mood state than a higher score except for vigour-activity, for which a higher POMS score indicates a better mood state. The scale has been described e.g. by McNair et al., Profile of mood states. San Diego, Calif.: Educational and Industrial Testing Service and by Nyenhios and Yamamoto, J. Clin. Psychology, (1999), Vol. 55(1): 79-86.
Assessment of POMs scores in Studies 12014A, 12023A and 12013A was used to evaluate the effect of nalmefene on mood states and mood changes throughout the study. […] Tables 5 and 7 indicate that patients with an anxiety disorder at baseline had higher POMS scores at baseline when compared to those patients without anxiety disorders. The change in POMS scores from baseline are illustrated in FIGS. 3-9. […] A remarkable improvement is seen over the weeks 8-20.
as §1
Assessment of POMs scores in Studies 12014A, 12023A and 12013A was used to evaluate the effect of nalmefene on mood states and mood changes throughout the study. […]

[3] = tested on: patients with alcohol dependence; experiment: Clinical efficacy measured by SF-36 Mental Component Summary (FAS, OC); type: in vivo, human; details: for SF-36 Mental Component Summary, Change to Week 12, Mean ± SE / SF-36 Mental Component Summary, Change to Week 24, Mean ± SE: pooled studies, FAS, OC
Text: Another method for measuring a patient's health status is by the SF-36 which is a patient-reported outcome developed as a general measure of perceived health status. The mental component summary score focuses on mental aspects of health related quality of life. Higher scores correspond to better health status or well-being.

[4] = tested on: rats; experiment: Vogel test in rats; type: in vivo, rat; details: 0.01, 0.1 and 1 mg/kg s.c. 30 minutes before the test; 3-minute test; vs vehicle
Text: Pairing of water drinking with […] shock punishment will induce a conflict in water deprived rats and lead to less frequent water seeking behaviour. Pretreatment of rats with an anxiolytic will counteract the conflict and increase the frequency of water seeking. The test can be conducted as described in detail by Vogel et al., Psychopharmacology, (1971), 21: pp. 1-7. In brief, rats are adapted to the test chambers, a Plexiglas box, equipped with a grid floor made of stainless steel bars and a drinking bottle with tap water. After the adaptation period, the animals are deprived of water and then placed in the test chamber for free access to the drinking bottle for a short period. Afterwards, they are allowed a short free-drinking session in their home cage. After another water deprivation period, the rats are placed again in the test chamber and allowed to drink for a very short time (30 s); immediately afterwards, their drinking attempts are punished with an electric shock. […] The number of shocks accepted throughout a 5-min experimental session was recorded.
Nalmefene was tested as the sole active compound in the Vogel model in rats. […] The number of punished drinks was counted during a 3-minute test. Nalmefene was evaluated at 3 doses (0.01, 0.1 and 1 mg/kg), administered s.c. 30 minutes before the test, and compared with a vehicle control group.

[5] = tested on: rats; experiment: Elevated plus maze test in rats; type: in vivo, rat; details: 0.01, 0.1 and 1 mg/kg s.c. 30 minutes before the test; 5 minutes; vs vehicle
Text: Rats have an aversion of open spaces and avoid them by confining movements to enclosed spaces or to the edges of a bounded space. Anxiolytic activity can be tested in a test setting consists of a plus-shaped apparatus with two open and two enclosed arms, each with an open roof, elevated 40-70 cm from the floor according to Pellow et al., J. Neurosci. Methods. (1985) August; 14(3):149-67. Pretreatment of rats with anxiolytic active compounds will increase in the proportion of time spent in the open arms (time in open arms/total time in open or closed arms), and an increase in the proportion of entries into the open arms (entries into open arms/total entries into open or closed arms). Total number of arm entries and number of closed-arm entries can be employed as measures of general activity.
Nalmefene was tested as the sole active compound in the elevated plus maze test in rats. A rat was placed in the centre of the plus-maze and left to explore for 5 minutes. The number of entries into the open and closed arms and the time spent on the open arms were recorded. The % of open arm entries (open arm entries/total arm entries×100) was calculated. Nalmefene was evaluated at 3 doses (0.01, 0.1 and 1 mg/kg), administered s.c. 30 minutes before the test, and compared with a vehicle control group.

[6] = tested on: Mice (NMRI); experiment: Marble burying test in mouse; type: in vivo; details: 0.01 or 1 mg/kg s.c.
Method: The method, which detects anxiolytic/tranquillizing activity, follows that described by Broekkamp et al (Eur. J. Pharmacol., 126, 223-229, 1986). Mice exposed to novel objects (marbles) will bury them in the sawdust floor covering. Anxiolytics decrease the number of marbles buried at non-sedative doses.
Nalmefene was tested in the marble burying model as the sole active compound. Mice (NMRI) were individually placed in transparent plastic cages (33×21×18 cm) with 5 cm of sawdust on the floor and 25 marbles grouped in the centre of the cage. The cage was covered with an inverted plastic cage. Each test cage, together with the marbles, was impregnated with mouse odor before-hand by leaving 10 mice in the cage for 15 minutes. These mice then played no further role in the experiment.
The number of marbles covered by sawdust (⅔ or more) was counted at the end of a 30 minute test. 12 mice were studied per group. The test was performed blind. Nalmefene was evaluated at 3 doses (0.01, 0.1 and 1 mg/kg), administered s.c. 30 minutes before the test, and compared with a vehicle control group. […]
Data with the test substance were analysed by comparing treated groups with vehicle control using Kruskall-Wallis test followed by Mann-Whitney U tests. Data with the reference substance were analysed using Mann-Whitney U tests. […]

[7] = target: μ receptor (Homo sapiens, UniProt P35372); details: in vitro studies; cited from earlier work
μ receptor, sequence (P35372 whole entry): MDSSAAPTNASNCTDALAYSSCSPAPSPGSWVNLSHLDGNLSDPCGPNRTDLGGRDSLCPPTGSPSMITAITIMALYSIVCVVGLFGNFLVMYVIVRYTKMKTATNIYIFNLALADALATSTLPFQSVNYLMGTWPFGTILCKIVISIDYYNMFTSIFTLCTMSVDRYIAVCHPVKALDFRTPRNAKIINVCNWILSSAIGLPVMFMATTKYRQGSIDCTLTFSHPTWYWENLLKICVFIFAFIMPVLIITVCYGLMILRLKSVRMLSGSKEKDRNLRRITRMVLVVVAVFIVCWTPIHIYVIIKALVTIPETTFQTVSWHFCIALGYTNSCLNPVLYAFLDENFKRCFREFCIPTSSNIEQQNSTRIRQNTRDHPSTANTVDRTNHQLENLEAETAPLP

[8] = target: δ receptor (Homo sapiens, UniProt P41143); details: in vitro studies; cited from earlier work
δ receptor, sequence (P41143 whole entry): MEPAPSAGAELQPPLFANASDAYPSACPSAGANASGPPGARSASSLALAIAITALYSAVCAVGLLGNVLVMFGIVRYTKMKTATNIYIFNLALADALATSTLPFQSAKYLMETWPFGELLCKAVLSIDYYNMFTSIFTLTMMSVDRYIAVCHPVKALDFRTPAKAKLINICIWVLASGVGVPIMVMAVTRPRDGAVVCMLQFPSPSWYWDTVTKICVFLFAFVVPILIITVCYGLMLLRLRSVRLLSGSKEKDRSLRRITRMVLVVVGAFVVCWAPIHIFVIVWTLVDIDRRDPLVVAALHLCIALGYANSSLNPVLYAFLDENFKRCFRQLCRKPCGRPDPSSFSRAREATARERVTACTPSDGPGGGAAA

[9] = target: κ receptor (Homo sapiens, UniProt P41145); details: in vitro studies; cited from earlier work
κ receptor, sequence (P41145 whole entry): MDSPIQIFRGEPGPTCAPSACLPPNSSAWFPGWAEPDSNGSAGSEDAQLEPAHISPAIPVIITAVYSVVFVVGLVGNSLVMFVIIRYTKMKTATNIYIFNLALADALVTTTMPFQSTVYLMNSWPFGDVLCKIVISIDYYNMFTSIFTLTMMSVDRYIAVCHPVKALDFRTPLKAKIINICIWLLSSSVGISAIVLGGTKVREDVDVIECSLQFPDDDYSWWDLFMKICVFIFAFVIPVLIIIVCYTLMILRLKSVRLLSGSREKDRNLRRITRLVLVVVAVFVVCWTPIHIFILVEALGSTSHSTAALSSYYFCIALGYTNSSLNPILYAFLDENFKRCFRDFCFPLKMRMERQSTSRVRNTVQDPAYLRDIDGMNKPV

[10] = total patient group, nalmefene 18 mg as-needed vs placebo
[11] = no anxiety disorder at baseline

## C=C1CC[C@@]2(O)[C@H]3Cc4ccc(O)c5c4[C@@]2(CCN3CC2CC2)[C@H]1O5 [Nalmefene, 17-(cyclopropylmethyl)-4,5-alpha-epoxy-6-methylenemorphinan-3,14-diol]
[1]; patients with an anxiety disorder at baseline
  alcohol consumption: significally reduced
[1]; [10]
  reducing TAC (change from baseline in average daily total alcohol consumption): superior to placebo
  reducing the number of HDDs (change from baseline in monthly number of heavy drinking days): superior to placebo
[1]; week 24, patients with an anxiety disorder at baseline compared with patients without
  difference between nalmefene and placebo measured in HDDs and TAC: merely at the same level
[2]; patients with an anxiety disorder at baseline, end of the study
  POMS score, nalmefene vs placebo: better POMS score
[2]; patients with an anxiety disorder at baseline, weeks 4-24
  POMS total mood disturbance, tension-anxiety, depression-rejection, anger-hostility and confusion, nalmefene vs placebo: better POMS scores
[2]; patients without an anxiety disorder at baseline, throughout the study
  POMS score, nalmefene vs placebo: no pronounced difference between nalmefene and placebo
[3]; Week 12 and Week 24, patients with an anxiety disorder at baseline compared with patients without
  difference between nalmefene and placebo in the change from baseline in SF-36 mental component summary score: more pronounced
[3]; anxiety disorder at baseline
  SF-36 Mental Component Summary, Change to Week 12, Mean ± SE: 6.23 ± 1.47
  SF-36 Mental Component Summary, Change to Week 24, Mean ± SE: 7.56 ± 2.24
[3]; [11]
  SF-36 Mental Component Summary, Change to Week 12, Mean ± SE: 4.77 ± 0.37
  SF-36 Mental Component Summary, Change to Week 24, Mean ± SE: 5.65 ± 0.43
[4]
  number of punished drinks: No significant effect
[5]
  open and closed arm entries, time spent on the open arms, % of open arm entries: No significant effect
[6]
  effect on number of marbles covered by sawdust compared with vehicle controls: no significant effects
[7]
  activity at the μ receptor: antagonist activity
[8]
  activity at the δ receptor: antagonist activity
[9]
  activity at the κ receptor: partial agonist activity
